According to patent US12295396B2, “Antagonists of T2R54 and compositions and uses thereof” (Firmenich Incorporated, priority 2018, dated 2025):
Read-outs that look alike come from different tables or passages of the source.

Legend:
T2R75 = molecular target: T1, T2R75 (Homo sapiens, UniProt P59540); assay: Antagonist activity against a panel of bitter taste receptors (receptor based assay): T2R75; assay type: cell-based
T1 sequence (P59540 1-309): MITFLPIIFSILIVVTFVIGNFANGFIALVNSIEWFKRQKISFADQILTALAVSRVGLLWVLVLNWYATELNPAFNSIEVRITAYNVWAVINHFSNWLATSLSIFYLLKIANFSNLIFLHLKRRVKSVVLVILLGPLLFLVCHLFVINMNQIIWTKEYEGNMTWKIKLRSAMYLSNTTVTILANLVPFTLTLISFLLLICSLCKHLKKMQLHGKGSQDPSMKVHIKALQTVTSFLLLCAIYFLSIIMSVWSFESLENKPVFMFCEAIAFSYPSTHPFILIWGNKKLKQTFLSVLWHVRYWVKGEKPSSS
Source text: (§1) Compounds described in this application show potent bitter antagonist effect on T2R54 in receptor based assays. […] Antagonist activity of 1-(6-methyl-2-phenylpyrimidin-4-yl)piperidine-4-carboxamide against a panel of bitter taste receptors is shown in Table 10, with the identity of each T2R as indicated in the left column, and the percentage activity remaining is indicated in the far right column.

T2R64 = molecular target: T2, T2R64 (Homo sapiens, UniProt P59538); assay: Antagonist activity against a panel of bitter taste receptors (receptor based assay): T2R64; assay type: cell-based
T2 sequence (P59538 1-309): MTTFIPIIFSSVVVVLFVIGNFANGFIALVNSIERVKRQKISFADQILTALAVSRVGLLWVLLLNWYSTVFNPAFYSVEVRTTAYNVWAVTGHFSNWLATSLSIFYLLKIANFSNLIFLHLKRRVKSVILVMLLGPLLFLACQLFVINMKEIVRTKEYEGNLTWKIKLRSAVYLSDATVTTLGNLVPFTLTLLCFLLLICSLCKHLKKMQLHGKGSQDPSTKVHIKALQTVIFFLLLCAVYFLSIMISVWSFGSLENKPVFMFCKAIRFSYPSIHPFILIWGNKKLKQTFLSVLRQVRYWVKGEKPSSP
Source text: as §1

T2R61 = molecular target: T3, T2R61 (Homo sapiens, UniProt P59537); assay: Antagonist activity against a panel of bitter taste receptors (receptor based assay): T2R61; assay type: cell-based
T3 sequence (P59537 1-309): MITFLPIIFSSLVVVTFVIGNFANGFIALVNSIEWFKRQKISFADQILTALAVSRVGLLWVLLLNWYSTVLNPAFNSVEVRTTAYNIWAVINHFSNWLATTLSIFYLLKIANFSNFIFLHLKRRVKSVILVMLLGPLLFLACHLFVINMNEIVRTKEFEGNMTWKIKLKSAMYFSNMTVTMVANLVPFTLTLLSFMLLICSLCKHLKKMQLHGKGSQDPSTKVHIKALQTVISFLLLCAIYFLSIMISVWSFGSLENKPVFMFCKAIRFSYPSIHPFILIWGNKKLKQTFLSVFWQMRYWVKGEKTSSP
Source text: as §1

hT2R54 = molecular target: T4, hT2R54 (Homo sapiens, UniProt P59534); assay: Cell-based assay for measuring hT2R54 inhibition (FLIPR calcium, Fluo4AM, acetaminophen as bitter agonist); conditions: read-out: hT2R54 IC50
T4 construct: expressed in transfected cells; it overexpresses a promiscuous G protein
T4 sequence (P59534 1-338): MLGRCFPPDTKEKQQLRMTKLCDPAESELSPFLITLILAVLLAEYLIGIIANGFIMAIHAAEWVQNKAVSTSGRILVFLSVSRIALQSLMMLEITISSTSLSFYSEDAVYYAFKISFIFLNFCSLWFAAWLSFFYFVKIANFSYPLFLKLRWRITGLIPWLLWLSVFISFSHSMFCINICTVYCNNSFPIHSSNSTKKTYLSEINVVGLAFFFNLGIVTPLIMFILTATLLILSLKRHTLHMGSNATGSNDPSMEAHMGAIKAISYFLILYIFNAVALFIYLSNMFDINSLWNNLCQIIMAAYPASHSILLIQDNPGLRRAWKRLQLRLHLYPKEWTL
Method in brief: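 Cells stably co-expressing hT2R54 and a promiscuous G protein were loaded with Fluo4AM and given acetaminophen dose series, alone or with fixed concentrations of test compound. On FLIPR, baseline was recorded for 10 s and fluorescence for 3 min after addition. IC50 is the concentration halving the acetaminophen-alone response.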

[1] = system: bitterness of epigallocatechin gallate (EGCg); assay: Sensory experiments: taste tests comparing EGCg alone with EGCg and a bitter blocker; assay type: in vivo, human
Protocol: To determine the effectiveness of an individual antagonist in blocking the bitterness, taste tests were performed comparing epigallocatechin gallate (EGCg) alone, which is known to activate T2R54 with EGCg and a bitter blocker described herein, namely compound 22 (Table 2).

[2] = Table 2, cells stably expressing hT2R54 and a promiscuous G protein

Row | Compound | IC50 (hT2R54; [2]) | IC50 (hT2R54; Table 9) | other results
1 | CC(=O)c1cc2c(cc1NC(=O)CN1CCN(C(=O)CC(C)C)CC1)OCO2 [Cmpd 1, N-(6-Acetylbenzo[d][1,3]dioxol-5-yl)-2-(4-(3-methylbutanoyl)piperazin-1-yl)acetamide] | 16 nM | – | bitter blocking effect on T2R75 (T2R75): significant bitter blocking effect; bitter blocking effect on T2R64 (T2R64): significant bitter blocking effect; bitter blocking effect on T2R61 (T2R61): significant bitter blocking effect
2 | CC(=O)c1cc2c(cc1NC(=O)CN1CCN(C(=O)C3CCCO3)CC1)OCO2 (centres unmarked) [compound 22] | 21 nM | – | Total (times sample selected as more bitter) ([1]; 600 uM EGCG + 15 uM compound versus 600 uM EGCG alone, 56 in total, p-value 0.044): 20; reduction of EGCg bitterness ([1]; taste tests, EGCg alone versus EGCg with bitter blocker): has the ability to reduce EGCg bitterness
3 | COc1cc2c(cc1NC(=O)Cc1ccsc1)OCO2 [compound 524] | – | 868 nM | –
4 | COc1cc2c(cc1NC(=O)C(C)C1CCN(C(=O)OC(C)(C)C)CC1)OCO2 (centres unmarked) [compound 525] | – | 3000 nM | –
5 | COC(=O)c1cc2c(cc1NC(=O)CC1CCN(C(=O)OC(C)(C)C)CC1)OCO2 [compound 528] | – | ~1000 nM | –
6 | COC(=O)c1cc2c(cc1NC(=O)CC1CCOCC1)OCCO2 [compound 529] | – | 12000 nM | –
